Measured values as given in PMC8152690, “Biosynthetic access to the rare antiarose sugar via an unusual reductase-epimerase” (Chemical Science, 2020).

Tests used:
RubS5 = biological target: T1, RubS5 (Streptomyces sp. KIB-H033, UniProt A0A1I9S3Q5); assay: HPLC and 1H-NMR of product; format: biochemical; details: sugar phosphate co-substrate (D-glucose-1-phosphate in text, D-glucose-6-phosphate in Fig. 2 legend)
T1 construct: expressed and purified; rubrolone gene cluster
T1 sequence (A0A1I9S3Q5 1-289): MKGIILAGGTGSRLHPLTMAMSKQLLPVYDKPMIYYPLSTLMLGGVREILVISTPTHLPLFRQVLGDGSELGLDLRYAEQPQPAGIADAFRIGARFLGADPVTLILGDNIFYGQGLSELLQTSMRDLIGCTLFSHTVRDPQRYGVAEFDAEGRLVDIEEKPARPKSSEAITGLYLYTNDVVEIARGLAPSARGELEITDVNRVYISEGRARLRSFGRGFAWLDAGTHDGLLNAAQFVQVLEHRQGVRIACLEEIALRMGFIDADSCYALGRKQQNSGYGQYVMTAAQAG

RblE = tested on: T2, RblE; assay: spectrophotometric assay, decrease of NADPH absorbance; format: biochemical
T2 construct: rubterolone gene cluster

Row | Km (RblE) [µM] | Compound | HPLC and 1H-NMR of product (RubS5)
1 |  | Cc1cn([C@H]2C[C@H](O)[C@@H](COP(=O)(O)OP(=O)(O)OP(=O)(O)O)O2)c(=O)[nH]c1=O [TTP] | buffer with TTP and D-glucose-6-phosphate. (b) RubS5 reaction
2 | 35 | Cc1cn([C@H]2C[C@H](O)[C@@H](COP(=O)(O)OP(=O)(O)O[C@H]3O[C@H](C)C(=O)[C@H](O)[C@H]3O)O2)c(=O)[nH]c1=O [compound 1, TDP-4-keto-6-deoxy-D-glucose] | 
